Laboratory results published in ChEMBL document CHEMBL3390842 (Medchemcomm, 2012).
Active and inactive are the calls of the source. The rule behind the calls is not given here.

Assays:
[1] = target: T1, G-protein coupled receptor 35 (Homo sapiens, UniProt Q9HC97); assay: Agonist activity at GPR35 in human HT-29 cells assessed as induction of whole cell dynamic mass redistribution at 128 uM after 50 mins by resonant waveguide grating biosensor analysis in presence of GPR35 antagonist ML-145; type: cell-based
T1 sequence (Q9HC97 whole entry): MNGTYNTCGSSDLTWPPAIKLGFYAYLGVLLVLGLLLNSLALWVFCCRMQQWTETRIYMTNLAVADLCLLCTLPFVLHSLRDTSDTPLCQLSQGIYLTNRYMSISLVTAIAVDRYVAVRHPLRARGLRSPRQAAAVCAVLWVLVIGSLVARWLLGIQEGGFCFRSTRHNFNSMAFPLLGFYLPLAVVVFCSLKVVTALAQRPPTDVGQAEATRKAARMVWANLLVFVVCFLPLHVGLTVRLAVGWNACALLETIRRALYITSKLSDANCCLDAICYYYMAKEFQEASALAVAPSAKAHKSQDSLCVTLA

[2] = target: T1, G-protein coupled receptor 35; type: cell-based, U2OS
[3] = target: T1, G-protein coupled receptor 35; type: cell-based, HT-29
[4] = target: T1, G-protein coupled receptor 35; assay: Agonist activity at GPR35 in human HT-29 cells assessed as induction of whole cell dynamic mass redistribution at 32 uM after 50 mins by resonant waveguide grating biosensor analysis in presence of GPR35 antagonist ML-145; type: cell-based

Structure (SMILES)	Activity [1]	EC50 [2] [µM]	EC50 [3] [µM]	Activity [4]
O=[N+]([O-])c1ccc(O)c([N+](=O)[O-])c1	Active	–	–	–
CC(=O)C(=Cc1cc(O)c(O)c([N+](=O)[O-])c1)C(C)=O [NITECAPONE]	–	17.1	0.82	–
CCN(CC)C(=O)/C(C#N)=C/c1cc(O)c(O)c([N+](=O)[O-])c1 [ENTACAPONE]	–	65.6	5.66	–
O=C(c1cc(O)c(O)c([N+](=O)[O-])c1)c1ccccc1F	–	54.4	8.66	Active
O=[N+]([O-])c1cc(O)c(O)c([N+](=O)[O-])c1	–	–	–	inactive
